Source: publication PMC9500072, “Topical application of an irreversible small molecule inhibitor of lysyl oxidases ameliorates skin scarring and fibrosis” (Nature Communications, 2022)

Experiments:
Dog Aorta LOX = Dog Aorta LOX (Canis lupus familiaris, UniProt A0A8I3N9H6); format: biochemical
Description: (§1) The measurement of the enzymatic activity of all lysyl oxidase family members was based on the detection of hydrogen peroxide with an Amplex-Red oxidation assay, as previously described; miniaturized in 384 well formats, with the appropriate combination of substrate and assay buffer for each individual enzyme. After a 30 min pre-incubation of the enzyme at 37 °C with the test compound (or with different incubation times for the time-dependency assay), one volume of reaction mixture containing 120 μM Amplex Red (AR) (Life Technologies), 1.5 U/mL horseradish peroxidase (HRP) (Sigma-Aldrich) and the specific substrate was added to each sample. The relative fluorescence units (RFU) were then measured every 2.5 min for 30 min at 37 °C, excitation 565 nm and emission 590, on a BMG Clariostar Microplate Reader. All the substrates were used at concentrations corresponding to their Km towards the corresponding enzyme, or with a range of different concentrations for the substrate competition experiments.
Lysyl oxidases assay buffer contained 1.2 M urea, 50 mM sodium borate buffer, pH 8.2 and 100 µM β-aminoproprionitrile (BAPN, Sigma-Aldrich) was used for low control. […]

GABAA, Muscimol, Central = assay: Eurofins panel 226500; format: binding, rat; conditions: 10 µM
Glutamate, Kainate = assay: Eurofins panel 232700; format: binding, rat; conditions: 10 µM
Adenosine A3 = Adenosine A3 (Homo sapiens, UniProt P0DMS8); assay: Eurofins panel 200720; format: binding
Rolipram = assay: Eurofins panel 270000; format: binding, rat; conditions: 10 µM
Prostanoid EP4 = Prostanoid EP4 (Homo sapiens, UniProt P35408); assay: Eurofins panel 268420; format: binding
Estrogen ERα = Estrogen ERα (Homo sapiens, UniProt P03372); assay: Eurofins panel 226010; format: binding
Bovine (aorta) LOX = target: T1, Bovine (aorta) LOX (Bos taurus, UniProt P33072); assay: Amplex Red oxidation assay, LOX inhibition; format: biochemical
T1 construct: Bovine (aorta) LOX used for analog screening due to ready availability; from tissue; host or cells: bovine aorta
T1 sequence (P33072 170-418): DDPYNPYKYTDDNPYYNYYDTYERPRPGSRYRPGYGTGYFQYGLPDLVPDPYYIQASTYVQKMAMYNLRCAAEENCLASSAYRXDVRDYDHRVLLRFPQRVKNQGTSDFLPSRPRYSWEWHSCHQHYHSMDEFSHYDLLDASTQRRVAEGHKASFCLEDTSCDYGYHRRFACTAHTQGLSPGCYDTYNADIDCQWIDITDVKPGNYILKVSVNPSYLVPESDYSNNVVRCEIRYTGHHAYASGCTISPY
Description: as §1
Lysyl oxidases assay buffer contained 1.2 M urea, 50 mM sodium borate buffer, pH 8.2 and 100 µM β-aminoproprionitrile (BAPN, Sigma-Aldrich) was used for low control.

Histamine H3 = Histamine H3 (Homo sapiens, UniProt Q9Y5N1); assay: Eurofins panel 239820; format: binding
[1] = Franz Cell skin permeability assay; format: in vitro ADME, human; conditions: 3% cream on epidermis of human skin ex vivo
[2] = test system: deep-dermal contact burn scar; assay: Porcine burn injury model with tensile strength testing; format: in vivo, pig
lysyl oxidases = test system: lysyl oxidases; design: method as in ACTRN1262100322831; conditions: ref ACTRN1262100322831; cited from earlier work
Phosphodiesterase PDE4D2 = Phosphodiesterase PDE4D2 (Homo sapiens, UniProt Q08499); assay: Eurofins panel 154420; format: biochemical
LogD = format: physicochemical
[3] = Rat pharmacokinetic-pharmacodynamic model, skin concentration; format: in vivo; conditions: topical; for concentration at 24 h after the last dose: 24 h after last dose; for concentration at 24 h: 500 mg on 16 cm^2, 24 h
Description: PXS-6302 was formulated as an oil in water cream of different concentrations (0, 0.3, 1, 10%) and applied to a shaved area on the back of a rat (500 mg cream applied to 16 cm^2). After 24 h animals were sacrificed, the concentration of PXS-6302 in the skin was measured and the lysyl oxidase activity determined.
To investigate the effect of repeat dosing, cream at different concentrations (0, 0.5, 1, and 3% PXS-6302, 400 mg applied to 16 cm^2) was applied once daily for 5 consecutive days and 24 h after the last dose, animals were sacrificed and the skin concentration determined.
PXS-6302 was formulated as an oil in water cream of different concentrations (0, 0.3, 1, 10%) and applied to a shaved area on the back of an adult rat (500 mg cream applied to 16 cm^2 skin surface area). After 24 h animals were euthanased. For the detection of lysyl oxidase activity in the skin, epidermal and dermal layers of the skin were dissected, pre-cooled with liquid nitrogen and pulverized. Samples were washed by homogenization with ice-cold wash buffer (0.15 M NaCl, 50 mM sodium borate, pH 8.0 with 0.25 mM PMSF and 1 µL/mL bovine aprotinin as protease inhibitors) at 100 µL/mg, centrifuged at 10,000 × g for 10 min at 4 °C and supernatant discarded. After the final washing step, the pellet was resuspended in extraction buffer (6 M urea, 50 mM sodium borate, pH 8.2 with 0.25 mM PMSF and 1 µL/mL aprotinin as protease inhibitors) with ratio of buffer volume to tissue weight at 4:1. After a 3 h incubation at 4 °C, the mixture was diluted 1:2 with assay buffer containing 50 mM sodium borate (pH 8.2), centrifuged at 20,000 × g for 20 min at 4 °C. The collected supernatant was spiked with pargyline hydrochloride and mofegiline hydrochloride at final concentrations of 0.5 mM and 1 µM, respectively, to inhibit amine oxidases. Lysyl oxidase activity was measured as previously described. The concentration of PXS-6302 in the skin was also measured in the same samples using LCMSMS as described for Franz cell diffusion assay.

[4] = target: Cholinesterase, Acetyl, ACES (Homo sapiens, UniProt P22303); assay: Eurofins panel 104010; format: biochemical
Chain of Cholinesterase, Acetyl, ACES (P22303 32-614): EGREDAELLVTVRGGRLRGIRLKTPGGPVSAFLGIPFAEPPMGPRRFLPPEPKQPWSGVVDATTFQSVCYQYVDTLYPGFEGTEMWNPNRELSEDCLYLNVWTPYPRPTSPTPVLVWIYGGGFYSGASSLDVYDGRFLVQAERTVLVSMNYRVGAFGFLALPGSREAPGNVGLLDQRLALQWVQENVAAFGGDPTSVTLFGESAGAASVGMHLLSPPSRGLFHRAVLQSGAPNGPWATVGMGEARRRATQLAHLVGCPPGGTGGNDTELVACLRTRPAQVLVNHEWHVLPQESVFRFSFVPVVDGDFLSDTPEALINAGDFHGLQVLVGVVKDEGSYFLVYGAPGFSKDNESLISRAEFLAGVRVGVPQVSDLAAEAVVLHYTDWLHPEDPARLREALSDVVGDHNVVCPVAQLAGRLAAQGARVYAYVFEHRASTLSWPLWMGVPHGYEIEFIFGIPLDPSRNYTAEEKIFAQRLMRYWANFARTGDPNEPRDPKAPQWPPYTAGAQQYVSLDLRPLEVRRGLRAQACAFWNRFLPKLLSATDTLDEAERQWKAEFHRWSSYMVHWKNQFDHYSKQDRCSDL

Chain of Dog Aorta LOX (A0A8I3N9H6 entry or part of it): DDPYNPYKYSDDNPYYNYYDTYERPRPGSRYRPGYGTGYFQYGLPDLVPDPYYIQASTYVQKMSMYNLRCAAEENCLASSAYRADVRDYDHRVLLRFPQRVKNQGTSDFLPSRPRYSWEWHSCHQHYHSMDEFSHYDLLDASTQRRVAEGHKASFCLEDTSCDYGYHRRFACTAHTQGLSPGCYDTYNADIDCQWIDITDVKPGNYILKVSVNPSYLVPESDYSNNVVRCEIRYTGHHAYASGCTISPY
Chain of Prostanoid EP4 (P35408 whole entry): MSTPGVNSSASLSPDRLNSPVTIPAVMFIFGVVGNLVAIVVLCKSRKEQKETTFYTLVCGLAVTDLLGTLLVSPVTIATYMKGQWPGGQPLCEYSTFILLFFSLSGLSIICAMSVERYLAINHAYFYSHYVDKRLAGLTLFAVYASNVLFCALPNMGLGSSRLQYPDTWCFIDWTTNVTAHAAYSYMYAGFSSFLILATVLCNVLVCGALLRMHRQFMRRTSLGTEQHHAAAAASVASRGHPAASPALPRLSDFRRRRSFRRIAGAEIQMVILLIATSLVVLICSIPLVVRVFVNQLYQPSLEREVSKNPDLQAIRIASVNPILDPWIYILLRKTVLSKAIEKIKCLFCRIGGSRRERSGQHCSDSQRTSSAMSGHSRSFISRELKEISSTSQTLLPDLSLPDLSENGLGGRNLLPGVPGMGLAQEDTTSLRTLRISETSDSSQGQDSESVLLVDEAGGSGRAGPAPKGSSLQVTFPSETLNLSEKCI
Chain of Estrogen ERα (P03372 whole entry): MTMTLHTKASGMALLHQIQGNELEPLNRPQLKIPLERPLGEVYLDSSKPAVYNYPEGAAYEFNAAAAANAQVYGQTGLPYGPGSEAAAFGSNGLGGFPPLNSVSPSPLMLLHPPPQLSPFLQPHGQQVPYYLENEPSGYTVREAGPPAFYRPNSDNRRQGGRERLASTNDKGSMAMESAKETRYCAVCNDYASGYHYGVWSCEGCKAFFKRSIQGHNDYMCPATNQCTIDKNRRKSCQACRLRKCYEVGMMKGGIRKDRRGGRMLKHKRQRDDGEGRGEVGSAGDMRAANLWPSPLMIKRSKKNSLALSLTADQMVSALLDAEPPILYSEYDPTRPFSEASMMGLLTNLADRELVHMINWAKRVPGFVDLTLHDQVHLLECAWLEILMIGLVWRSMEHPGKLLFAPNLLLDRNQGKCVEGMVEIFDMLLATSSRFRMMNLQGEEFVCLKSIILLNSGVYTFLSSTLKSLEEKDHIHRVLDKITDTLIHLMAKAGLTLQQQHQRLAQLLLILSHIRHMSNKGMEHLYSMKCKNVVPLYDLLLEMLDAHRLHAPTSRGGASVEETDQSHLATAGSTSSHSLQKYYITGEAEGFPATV
Chain of Adenosine A3 (P0DMS8 whole entry): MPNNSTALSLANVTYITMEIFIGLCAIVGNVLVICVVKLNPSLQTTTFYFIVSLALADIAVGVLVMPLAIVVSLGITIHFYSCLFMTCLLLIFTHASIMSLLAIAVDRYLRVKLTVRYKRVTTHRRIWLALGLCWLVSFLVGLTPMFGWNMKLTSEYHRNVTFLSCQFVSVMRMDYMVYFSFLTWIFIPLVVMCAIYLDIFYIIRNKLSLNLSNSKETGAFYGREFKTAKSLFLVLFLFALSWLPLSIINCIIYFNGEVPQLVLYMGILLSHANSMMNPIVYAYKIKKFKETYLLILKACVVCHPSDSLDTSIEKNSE
Chain of Phosphodiesterase PDE4D2 (Q08499 303-809 limits assumed): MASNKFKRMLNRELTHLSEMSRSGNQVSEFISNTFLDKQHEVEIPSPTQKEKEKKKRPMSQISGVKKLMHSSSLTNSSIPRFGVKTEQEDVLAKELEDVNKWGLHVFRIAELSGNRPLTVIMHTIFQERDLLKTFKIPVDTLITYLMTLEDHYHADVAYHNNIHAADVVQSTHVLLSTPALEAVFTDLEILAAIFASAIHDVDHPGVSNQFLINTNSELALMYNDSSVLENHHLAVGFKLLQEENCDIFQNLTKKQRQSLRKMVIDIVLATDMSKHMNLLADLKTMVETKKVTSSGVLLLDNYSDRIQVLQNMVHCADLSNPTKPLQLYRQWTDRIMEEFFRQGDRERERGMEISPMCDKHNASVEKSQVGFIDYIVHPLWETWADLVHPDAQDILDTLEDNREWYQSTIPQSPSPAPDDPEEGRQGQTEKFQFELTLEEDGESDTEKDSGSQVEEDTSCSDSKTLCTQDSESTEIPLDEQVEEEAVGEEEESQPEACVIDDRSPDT
Chain of Histamine H3 (Q9Y5N1 whole entry): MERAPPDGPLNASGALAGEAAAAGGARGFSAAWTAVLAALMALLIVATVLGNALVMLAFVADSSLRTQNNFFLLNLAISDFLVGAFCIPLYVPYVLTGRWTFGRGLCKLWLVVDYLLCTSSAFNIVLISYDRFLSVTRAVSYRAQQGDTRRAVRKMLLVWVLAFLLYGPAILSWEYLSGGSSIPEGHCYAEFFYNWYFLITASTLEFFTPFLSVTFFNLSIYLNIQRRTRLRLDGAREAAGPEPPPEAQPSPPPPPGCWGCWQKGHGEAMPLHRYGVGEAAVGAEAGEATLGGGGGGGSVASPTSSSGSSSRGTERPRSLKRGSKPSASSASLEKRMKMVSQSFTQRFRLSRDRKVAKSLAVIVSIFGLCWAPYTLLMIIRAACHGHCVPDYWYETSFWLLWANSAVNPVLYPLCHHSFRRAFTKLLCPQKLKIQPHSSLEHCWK

Question: With `N#CCCN` [BAPN, β-aminoproprionitrile, reference compound] as the compound, how does the “Dog Aorta LOX pIC50±SD” value (Dog Aorta LOX) read?
Answer: 5.7 ± 0.1

Question: What about the IC50 (Dog Aorta LOX) of the same compound?
Answer: 2130 nM

Question: For `NC/C=C(\F)CS(=O)(=O)c1ccccc1` [PXS-4787], which “% Inh.” value (GABAA, Muscimol, Central) is on record?
Answer: 13%

Question: And the “% Inh.” value (Glutamate, Kainate)?
Answer: 16%

Question: What about the inhibition at 10 µM (Adenosine A3) of the same compound?
Answer: 4%

Question: What about the “% Inh.” value (Rolipram) of the same compound?
Answer: 17%

Question: And the inhibition at 10 µM (Prostanoid EP4)?
Answer: -2%

Question: And the inhibition at 10 µM (Estrogen ERα)?
Answer: 3%

Question: And the IC50 (Bovine (aorta) LOX; 30 min pre-incubation)?
Answer: 2000 nM

Question: And the inhibition at 30 µM (Bovine (aorta) LOX; log conc -4.5229, read-out: Fig 2A inhibition (mean))?
Answer: 99.2%

Question: What about the inhibition at 10 µM (Bovine (aorta) LOX; log conc -5, read-out: Fig 2A inhibition (mean)) of the same compound?
Answer: 92.3%

Question: And the inhibition at 3.333 µM (Bovine (aorta) LOX; log conc -5.4771, read-out: Fig 2A inhibition (mean))?
Answer: 65.8%

Question: And the inhibition at 1.111 µM (Bovine (aorta) LOX; log conc -5.9542, read-out: Fig 2A inhibition (mean))?
Answer: 35%

Question: What about the inhibition at 0.3704 µM (Bovine (aorta) LOX; log conc -6.4313, read-out: Fig 2A inhibition (mean)) of the same compound?
Answer: 14.2%

Question: And the inhibition at 0.1235 µM (Bovine (aorta) LOX; log conc -6.9083, read-out: Fig 2A inhibition (mean))?
Answer: 4.31%

Question: And the inhibition at 0.0412 µM (Bovine (aorta) LOX; log conc -7.3851, read-out: Fig 2A inhibition (mean))?
Answer: 1.21%

Question: What about the inhibition at 0.0137 µM (Bovine (aorta) LOX; log conc -7.8633, read-out: Fig 2A inhibition (mean)) of the same compound?
Answer: -0.629%

Question: What about the inhibition at 0.0046 µM (Bovine (aorta) LOX; log conc -8.3372, read-out: Fig 2A inhibition (mean)) of the same compound?
Answer: -1.3%

Question: What about the inhibition at […] (Bovine (aorta) LOX; log conc -8.8239, read-out: Fig 2A inhibition (mean)) of the same compound?
Answer: -1.09%

Question: What about the inhibition at 0.0005 µM (Bovine (aorta) LOX; log conc -9.301, read-out: Fig 2A inhibition (mean)) of the same compound?
Answer: -1.47%

Question: And the inhibition at 10 µM (Histamine H3)?
Answer: -5%

Question: Which results are given for `NC/C=C(\F)C(F)(F)S(=O)(=O)c1ccccc1` [PXS-6302]?
Answer: further increase of concentration in reservoir chamber over the next 14 h [1]: 10 fold; increase of concentration in reservoir chamber between 2 and 6 h [1]: 10 fold; tensile strength, treated vs control scars ([2]; 3% cream): no significant differences; scar photo score by blinded plastic surgeons vs placebo ([2]; 3% cream once daily from re-epithelialisation to 2 months post-injury): significantly better; treated scars with lower Young's modulus than matched vehicle treated scar ([2]; 3% cream, p = 0.15): 5/6; target engagement and inhibition in phase I trial (lysyl oxidases): strong target engagement and long-lasting inhibition; inhibition at 30 µM (Phosphodiesterase PDE4D2): 3%; logD (LogD): 1; concentration at 24 h after the last dose ([3]; 400 mg of 0.5% cream on 16 cm^2, once daily for 5 days, 0.5% cream 400 mg once daily 5 days): 4900 ± 800 ng/g; concentration at 24 h after the last dose ([3]; 400 mg of 1% cream on 16 cm^2, once daily for 5 days, 1% cream 400 mg once daily 5 days): 9300 ± 700 ng/g; concentration at 24 h after the last dose ([3]; 400 mg of 3% cream on 16 cm^2, once daily for 5 days, 3% cream 400 mg once daily 5 days): 31700 ± 3280 ng/g; concentration at 24 h ([3]; 500 mg of 0.3% cream on 16 cm^2, single dose 0.3% cream): 7900 ± 1500 ng/g; concentration at 24 h ([3]; 500 mg of 1% cream on 16 cm^2, single dose 1% cream): 8900 ± 1400 ng/g; concentration at 24 h ([3]; 500 mg of 10% cream on 16 cm^2, single dose 10% cream): 119000 ± 7800 ng/g; inhibition at 30 µM [4]: 2%
